In patent US11602553B2, “Composition of lactobacillus and berry extract” (UNIVERSITY OF FLORIDA RESEARCH FOUNDATION, INCORPORATED, priority 2018, dated 2023):

Assay: Radical scavenging activity (DPPH method)
Settings: positive control
Protocol: Residual phenolic in growth media ([…]) were recovered as follows: samples of the growth media were taken at different time points along L. johnsonii N6.2 growth kinetics. The supernatant was recovered by centrifugation (4000 g for 30 min at 4° C.) and saved as aliquots at -20° C. until processing. Soluble phenolic compounds were recovered by solid-phase extraction using […] column (ThermoScientific, WI, USA) as described by Correa-Betanz et al. (2015). The total scavenging activity of the culture media was assessed by using the DPPH method described by Dong et al. (2017). The samples ([…] or its polyphenol enriched fractions) were diluted (1⁄2 and 1/10) in methanol. […] The quenching ability of L-ascorbic acid was used as a positive control. The absorbance was measured at 515 nm using a Sinergy HT microplate reader (Biotek, Winooski, Vt., USA). The scavenging activity (SA) was estimated by the following formula: % SA=[(Abscontrol-blank-Abssample-blank)/Abscontrol-blank]×100. Total radical scavenging activity (% SA) is expressed in percent of quenching activity per μg of gallic acid equivalents.

For O=C1O[C@H]([C@@H](O)CO)C(O)=C1O [L-ascorbic acid], the “DPPH scavenging activity (% SA)” value was 20.2±0.85 % SA.
